This is an account of results in patent US10952940B2, “Reagents and methods for mineralization of tooth enamel” (UNIVERSITY OF WASHINGTON, priority 2016, dated 2021).

Experiment [1] can be described thus: Solid binding affinity to HAp. From the text:
The ADP5 peptide was generated using a procedure that was developed for designing protein derived peptides as described previously. Briefly, 7-AA and 12-AA long hydroxyapatite binding peptides (HABPs) were experimentally selected using the c7c- and 12-phage libraries (New England BioLabs Inc., Ipswich, Mass., USA), respectively. Next, the 180 amino acid-long human amelogenin protein (rM180) was divided into 7-AA and 12-AA long segments and each segment was compared with all of the 155 experimentally selected HABPs. The regions with high similarity scores from 7-AA and 12-AA long segments were overlapped and those coinciding high similarity regions were chosen as the putative strong binding regions. These computationally determined high similarity regions were then refined to design the ADPs by protein structure prediction, Ca^2+ ion-binding domain predictions, and meta-functional signature analyses. Two separate assays were developed to characterize the ADPs: Solid binding affinity to HAp and mineralization in aqueous solution. […] Because of this property, ADP5 has been used for developing mineralization on human teeth. […] For this, we eliminated the six amino acids from the amino end and alanine from the carboxyl end, while keeping the charged amino acids intact that are thought to initiate mineralization. […]

A short description of experiment [2]: Mineralization in aqueous solution (kinetics). The method, then: Fast kinetics refers to fast mineral formation, such as immediate mineral formation, while slow mineral formation refers to mineral formation over a period of time, such as about 5 minutes to about 1 hour. In some embodiments, a first biomineralizing peptide having faster kinetics can be used in combination with a second biomineralizing peptide having slower kinetics.
The ADP5 peptide was generated using a procedure that was developed for designing protein derived peptides as described previously. Briefly, 7-AA and 12-AA long hydroxyapatite binding peptides (HABPs) were experimentally selected using the c7c- and 12-phage libraries (New England BioLabs Inc., Ipswich, Mass., USA), respectively. Next, the 180 amino acid-long human amelogenin protein (rM180) was divided into 7-AA and 12-AA long segments and each segment was compared with all of the 155 experimentally selected HABPs. The regions with high similarity scores from 7-AA and 12-AA long segments were overlapped and those coinciding high similarity regions were chosen as the putative strong binding regions. These computationally determined high similarity regions were then refined to design the ADPs by protein structure prediction, Ca^2+ ion-binding domain predictions, and meta-functional signature analyses. […]

For experiment [3] the following is noted: 0.8 mM sADP5 10 minutes, then Ca/PO4 1 hour at 37° C.
Experimental: Extracted human teeth samples were collected from University of Washington clinics. The enamel tissue was cut out the using low speed saw on a perpendicular direction to the underlying dentin tubules. Next, the smear layer on the dentin was removed by polishing down to 0.1 um finish and etching for 10 seconds using 10% citric acid solution. For remineralization treatment, samples were soaked into 200 ul of 0.8 mM sADP5 peptide (SEQ ID NO:24) solution and incubated for 10 minutes at 37° C. Next, excess peptide was removed by blotting and the sample was soaked in 24 mM Tris Buffer solution supplemented with 4.8 mM Ca and 2.88 mM PO4 ions for 1 hour at 37° C. Following the remineralization treatment, samples were rinsed with deionized water, dried in air and characterized with scanning electron microscope
Experiment [4] in a line: Layer-by-layer mineralization by peptide in solution on white spot lesion. Also on record: species or system human. The note with it: 0.8 mM sADP5. As for the experimental part: On extracted human tooth, the entire tooth was painted with lacquer (nail polish) except a 3 mm by 3 mm window on enamel. This window was subjected to etching then remineralization. The following steps were then carried out:
• 1. Etch enamel surface aqueous solution of 2.2 mM K2HPO4, 2.2 mM CaCl2, and 50 mM acetic acid at pH 4.5 for 2 weeks, changing solution every other day, to create white spot lesion (WSL) […]. • 2. Soak in 100 ml of 0.8 mM sADP5 solution at 37 C for 10 minutes then blot dry with tissue paper. • 3. Soak in 600 ml of 4.8 mM CaCl2+2.8 mM K2HPO4 in pH 7.4 Tris buffer at 37 C for 1 hour. • 4. Drip rinse with DI water for 20 seconds then blot dry with Kimwipe™ sheet. • 5. Repeat steps 3-4 to add more mineralized layers. Results & Discussions—

A short description of experiment [5]: Side-by-side comparison of peptide-mineralized whitening versus commercial whitening products. The note with it: Image-J analysis of optical images; strip 30 mins, gel 10 minutes, peptide 0.8 mM 10 mins + artificial saliva 1 hr. As for the experimental part:
The whitening products were used according to the manufacturers' directions. For the strip, the product was applied to the pre-stained tooth for 30 mins and peeled off. Then the samples were rinsed with water for 1 min to clean the surface of the teeth from any residues from the strip. In the case of the second product, the gel was applied to the pre-stained teeth for 10 minutes and then cleaned by rinsing with water for 1 minute. In the peptide-remineralization case, the stained teeth were incubated with sADP5 (SEQ ID NO:24) peptide solution (0.8 mM) for 10 mins., followed by soaking in the artificial saliva (for 1 hr) that was supplemented with 4.8 mM Ca and 2.9 mM PO4 ionic concentrations.
The samples treated with whitening products or with the remineralization method were prepared for optical imaging for color change and also for surface characterization with scanning electron microscopy. The images of the teeth samples were recorded using a light optical microscopy technique under compact fluorescent light. The recorded images were digitized and examined with Image-J Line (NIH Software) for quantitative analysis of the color change (a, d, f and h). The cross-sectioned samples were prepared for SEM examination of the internal as well as surface structure of the teeth, and the results are shown in FIG. 15 (e, g, and i, plus their inset images).

Several values for one entry are separate records, joined by “and”; a condition that tells them apart may be missing. Equal entries are not always repeated. Entries after “also recorded” stand apart in the source; their conditions may differ. Where no end group is shown, it is not given here.

Take “(PGYIN(L/F)SYE(K/N)SHSQAIN(T/V)DRTA)1-10 [ADP5]”: in experiment [1], the “binding to HAp” value is listed as “one of the weakest binding peptides”. The mineralization kinetics entry in experiment [2] is “fastest mineralization kinetics; also recorded: fast kinetic profile”.
For the substance “(SYEKSHSQAINTDRT)1-10 (also: repeated 1-10 times) [sADP5]”, in experiment [3], the “depth of mineral penetration into tubules” value is given as 2-3 um and the “occlusion of exposed dentin tubules” value was “successfully occluded”. In addition, the “Ca/P of new mineral layers” value in experiment [4] (after 4 repetitions) is listed as 1.43+0.15. The “number of distinctive mineral layers formed” value in experiment [4] (after 4 repetitions of the mineralization steps) was determined as 4. The “increase of tooth shade above tea-stained baseline” value in experiment [5] is 4.64% and 4.6%.
As to “(HPP(S/T)HTLQPHHH(L/I)PVVPAQQPV(A/I)PQQPMMPVPG(H/Q)HSMTP(T/I)QH)1-10 [ADP7]”, the mineralization kinetics entry in experiment [2] is “slow kinetic profile”.
